Here are results for two molecules from article PMC12147714 (FEMS Microbiology Letters, 2025).

A value given as a limit tells only on which side of the number the result lay.

Series [1] concerns PAO1 TnoprD producing IMP-1. The series can be described thus: MIC and checkerboard by broth microdilution, recombinant strain. Conditions: IMP-1 TnoprD; antibiotic alone. In kind it is cell-based, Pseudomonas aeruginosa. The procedure: (§1) The fractional inhibitory concentration index (FICI) was calculated and interpreted as follows: the MIC of drug A in combination/the MIC of drug A alone + the MIC of drug B in combination/the MIC drug B alone. FICI ≤ 0.5 = synergy; 0.5 < FICI ≤ 1 = additive; FICI 1 < FICI < 2 = indifference, and FICI ≥ 2 = antagonism. All susceptibility testing/checkerboard assays were performed in triplicate.
(In general: In broth dilution the organism is exposed to a series of concentrations in liquid medium.)

In series [2] the test system is PAO1 TnoprD producing NDM-1. The series is described as above. Type of series: cell-based, Pseudomonas aeruginosa. The conditions noted are these: NDM-1 TnoprD; antibiotic alone. As to the method: as §1
Series [3] deals with PAO1 TnoprD producing VIM-1. The series is described as above. Type of series: cell-based, Pseudomonas aeruginosa. The conditions noted are these: VIM-1 TnoprD; antibiotic alone. The procedure:
as §1

A further series relates to PAO1 producing IMP-10. Described as above. In kind it is cell-based, Pseudomonas aeruginosa. The conditions noted are these: antibiotic alone. As to the method:
as §1

The next series concerns PAO1 producing NDM-1. Described as above. The conditions noted are these: antibiotic alone. In kind it is cell-based, Pseudomonas aeruginosa. The procedure:
as §1

The test system of series [4] is PAO1 TnoprD producing IMP-10. Described as above. Type of series: cell-based, Pseudomonas aeruginosa. The conditions noted are these: IMP-10 TnoprD; antibiotic alone.
Description: (§2) Pseudomonas aeruginosa isolate, PAO1, was used alongside its isogenic counterpart, PAO1 TnoprD, which lacks a functional OprD porin (Held et al. [2012]). β-lactamases, blaIMP-1, blaIMP-10, blaIMP-13, blaNDM-1, blaSPM-1, blaVIM-1, blaVIM-2, and blaKPC-2, had previously been cloned into the pUCP24 shuttle vector (Bouvier et al. [2025]), and were transformed by electroporation into both PAO1 and PAO1 TnoprD.
as §1, with “. MICs of DMSA, CAZ, FEP and checkerboards for the combinations, CAZ/DMSA and FEP/DMSA, were performed for all clinical isolates. All susceptibility testing results were interpreted according to CLSI guidelines (CLSI [2023]). The” for “The”

In series [5] the test system is PAO1 TnoprD producing IMP-13. Described as above. Type of series: cell-based, Pseudomonas aeruginosa. Conditions: IMP-13 TnoprD; antibiotic alone.
Description: as §2
as §1, with “. MICs of DMSA, CAZ, FEP and checkerboards for the combinations, CAZ/DMSA and FEP/DMSA, were performed for all clinical isolates. All susceptibility testing results were interpreted according to CLSI guidelines (CLSI [2023]). The” for “The”

Series [6] deals with PAO1 TnoprD producing SPM-1. The description is as above. In kind it is cell-based, Pseudomonas aeruginosa. The conditions noted are these: SPM-1 TnoprD; antibiotic alone.
Description: as §2
as §1, with “. MICs of DMSA, CAZ, FEP and checkerboards for the combinations, CAZ/DMSA and FEP/DMSA, were performed for all clinical isolates. All susceptibility testing results were interpreted according to CLSI guidelines (CLSI [2023]). The” for “The”

Series [7] concerns PAO1 TnoprD producing VIM-2. The series is described as above. Type of series: cell-based, Pseudomonas aeruginosa. Conditions: VIM-2 TnoprD; antibiotic alone.
Description: as §2
as §1, with “. MICs of DMSA, CAZ, FEP and checkerboards for the combinations, CAZ/DMSA and FEP/DMSA, were performed for all clinical isolates. All susceptibility testing results were interpreted according to CLSI guidelines (CLSI [2023]). The” for “The”

Another series deals with PAO1 producing IMP-13. The series is described as above. Type of series: cell-based, Pseudomonas aeruginosa. The conditions noted are these: antibiotic alone.
Description: as §2
as §1, with “. MICs of DMSA, CAZ, FEP and checkerboards for the combinations, CAZ/DMSA and FEP/DMSA, were performed for all clinical isolates. All susceptibility testing results were interpreted according to CLSI guidelines (CLSI [2023]). The” for “The”

The next series relates to PAO1 producing IMP-1. Described as above. Type of series: cell-based, Pseudomonas aeruginosa. Conditions: antibiotic alone.
Description: as §2
as §1, with “. MICs of DMSA, CAZ, FEP and checkerboards for the combinations, CAZ/DMSA and FEP/DMSA, were performed for all clinical isolates. All susceptibility testing results were interpreted according to CLSI guidelines (CLSI [2023]). The” for “The”

Another series relates to PAO1 producing SPM-1. The series is described as above. Type of series: cell-based, Pseudomonas aeruginosa. The conditions noted are these: antibiotic alone.
Description: as §2
as §1, with “. MICs of DMSA, CAZ, FEP and checkerboards for the combinations, CAZ/DMSA and FEP/DMSA, were performed for all clinical isolates. All susceptibility testing results were interpreted according to CLSI guidelines (CLSI [2023]). The” for “The”

A further series relates to PAO1 producing VIM-1. Described as above. Type of series: cell-based, Pseudomonas aeruginosa. Conditions: antibiotic alone.
Description: as §2
as §1, with “. MICs of DMSA, CAZ, FEP and checkerboards for the combinations, CAZ/DMSA and FEP/DMSA, were performed for all clinical isolates. All susceptibility testing results were interpreted according to CLSI guidelines (CLSI [2023]). The” for “The”

A further series relates to PAO1 producing VIM-2. The description is as above. In kind it is cell-based, Pseudomonas aeruginosa. Conditions: antibiotic alone.
Description: as §2
as §1, with “. MICs of DMSA, CAZ, FEP and checkerboards for the combinations, CAZ/DMSA and FEP/DMSA, were performed for all clinical isolates. All susceptibility testing results were interpreted according to CLSI guidelines (CLSI [2023]). The” for “The”

Details of series [8]: method as in van Eijkeren et al. 2016. Conditions: 30 mg/kg dose; ref van Eijkeren et al. 2016; cited from earlier work.
Another series concerns MBL-producing E. coli. The conditions noted are these: high concentrations, ref Cheminet et al. 2020, cited from earlier work.
The test system of series [9] is MBL-producers in isogenic strains of P. aeruginosa. Further details: method as in Bouvier et al. 2025. Conditions: ref Bouvier et al. 2025, cited from earlier work.
For a further series, the target named is IMP-10 (Serratia marcescens, UniProt P52699, V49F). Briefly: IC50, inhibition of cephalothin hydrolysis by crude extract. The conditions noted are these: IMP-10; 100 μM cephalothin, pH 7.0.
Chain of IMP-10 (P52699 19-246 V49F): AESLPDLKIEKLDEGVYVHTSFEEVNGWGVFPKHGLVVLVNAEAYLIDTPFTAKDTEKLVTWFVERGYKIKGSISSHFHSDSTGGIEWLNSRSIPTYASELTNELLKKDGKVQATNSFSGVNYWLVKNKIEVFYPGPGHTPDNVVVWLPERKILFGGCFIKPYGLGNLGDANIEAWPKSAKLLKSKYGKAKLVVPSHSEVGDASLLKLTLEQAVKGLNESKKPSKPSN
The target in a further series is IMP-13 (Pseudomonas aeruginosa, UniProt Q7WYA8). Described as above. The conditions noted are these: IMP-13; 100 μM cephalothin, pH 7.0.
Chain of IMP-13 (Q7WYA8 21-246): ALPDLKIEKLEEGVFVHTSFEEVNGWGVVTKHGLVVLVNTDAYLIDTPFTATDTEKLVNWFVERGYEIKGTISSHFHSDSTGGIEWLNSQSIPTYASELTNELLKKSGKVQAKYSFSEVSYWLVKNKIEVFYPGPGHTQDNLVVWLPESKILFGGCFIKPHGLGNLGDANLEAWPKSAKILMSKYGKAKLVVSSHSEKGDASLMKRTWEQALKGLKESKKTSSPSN
For a further series, the target named is NDM-1 (Klebsiella pneumoniae, UniProt C7C422). The series is described as above. Conditions: 100 μM cephalothin, pH 7.0.
Chain of NDM-1 (C7C422 29-270 limits assumed): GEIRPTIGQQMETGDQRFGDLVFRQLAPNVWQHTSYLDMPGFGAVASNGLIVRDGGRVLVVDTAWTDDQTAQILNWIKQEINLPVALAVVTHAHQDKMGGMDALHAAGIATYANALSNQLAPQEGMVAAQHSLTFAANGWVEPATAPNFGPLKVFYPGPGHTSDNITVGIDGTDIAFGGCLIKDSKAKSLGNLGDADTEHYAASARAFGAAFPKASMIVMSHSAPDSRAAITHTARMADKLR
A further series deals with SPM-1 (Pseudomonas aeruginosa, UniProt Q8G9Q0). The series is described as above. The conditions noted are these: SPM-1; 100 μM cephalothin, pH 7.0.
Chain of SPM-1 (Q8G9Q0 entry or part of it): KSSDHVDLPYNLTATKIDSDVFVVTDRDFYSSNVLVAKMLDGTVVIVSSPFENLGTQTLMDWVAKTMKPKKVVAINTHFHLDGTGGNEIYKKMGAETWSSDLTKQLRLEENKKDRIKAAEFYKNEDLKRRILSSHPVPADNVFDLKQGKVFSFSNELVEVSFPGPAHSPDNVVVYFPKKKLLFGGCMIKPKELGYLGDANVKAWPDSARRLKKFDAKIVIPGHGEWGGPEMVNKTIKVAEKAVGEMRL
The target of the next series is VIM-1 (Pseudomonas aeruginosa, UniProt A0A0F7KYQ8). Described as above. The conditions noted are these: VIM-1; 100 μM cephalothin, pH 7.0.
A further series addresses VIM-2 (Escherichia coli, UniProt Q5U7L7). The description is as above. Conditions: VIM-2; 100 μM cephalothin, pH 7.0.

Broadly, the MIC is the least concentration at which growth counts as inhibited. With `CC(C)(O/N=C(\C(=O)N[C@@H]1C(=O)N2C(C(=O)[O-])=C(C[n+]3ccccc3)CS[C@H]12)c1csc(N)n1)C(=O)O` [CAZ, ceftazidime], the MIC in series [1] is 1020 µg/mL; in [2] it was 4100 µg/mL; in [3] it was 2050 µg/mL; in the series with PAO1 producing IMP-10, 2050 µg/mL; with PAO1 producing NDM-1, 4100 µg/mL; in [4], 2050 µg/mL. In addition, the MIC in [5] stood at 64 µg/mL; in [6] it was 512 µg/mL; in [7] it was 8 µg/mL; with PAO1 producing IMP-13 it was 64 µg/mL; in the series on PAO1 producing IMP-1, 1020 µg/mL; in the series on PAO1 producing SPM-1 it was 512 µg/mL. The MIC in the series on PAO1 producing VIM-1 stood at 2050 µg/mL; in the series with PAO1 producing VIM-2, 8 µg/mL.
The IC50 is the concentration needed to halve the response being measured. A higher IC50 goes with lower potency. Take `O=C(O)[C@@H](S)[C@@H](S)C(=O)O` [DMSA, meso-dimercaptosuccinic acid]: the tolerability entry in series [8] was “well tolerated”. The “efficacy in mouse peritonitis model” value in the series on MBL-producing E. coli (MBL-producing E. coli) was “effective”. Besides, in the series with MBL-producing E. coli, the “tolerability in mouse peritonitis model” value was “well-tolerated”. Also, the “effect on carbapenem (IPM and MEM) MICs” value in series [9] (DMSA at 3 mM) is given as “significantly reduce”. Besides, the “type of interaction with carbapenems” value in [9] is “additive”. The IC50 is 50 µM on IMP-10; 350 µM against IMP-13; over 1000 µM at NDM-1; over 1000 µM at SPM-1; over 1000 µM against VIM-1; over 1000 µM against VIM-2.
